Test results: patent US6403643B1, “Use of 2,5-dihydroxybenzenesulfonic derivatives for the normalization of endothelial function” (Laboratories del Dr. Esteve, S.A., priority 1997, dated 2002)

Key:
endothelium = assay: Endothelium-dependent vascular relaxation in normal animals and animals with vitamin D2-induced vascular aging (background statement); settings: normal animals and animals with vascular aging produced by high doses of vitamin D2
Description: This effect is observed both in normal animals and in those in which vascular aging has been produced experimentally by means of the administration of high doses of vitamin D2. This activity of calcium dobesilate, of ethamsylate and of persilate may be reflected in man by effects which are therapeutically useful. […] Rosen, “The Pharmacology of Sexual Function and Dysfunction”, edited by J. Bancroft, Elsevier Sc., 1995, cages 277-287). The normalization of the endothelial function obtained with calcium dobesilate, ethamsylate and persilate can represent an entirely novel therapeutic approach to the problem of impotence (I. Saenz de Tejada et al., N. Engl. J. Med., 1989, 320, 1025-1030), both in patients with vascular disorders with various causes (diabetes, arteriosclerosis, and the like) and in patients where only a functional disorder can be detected.

[1] = tested on: aortas isolated from male rabbits; assay: Relaxation of the contraction of isolated aorta maintained with 10^−6 M noradrenalin (in vitro); assay type: cell-based, rabbit; settings: aorta contraction maintained with 10^−6 M noradrenalin; concentrations between 10^−4M and 10^−11M
Protocol: (§1) The studies were carried out by using the aortas isolated from male rabbits according to the techniques described by A. Quintana et al. (Europ. J. Pharmacol., 1978, 53, 113-116) and by the group from the University of Edinburgh (Pharmacological Experiments on Isolated Preparations, Edinburgh, Livingstone, 1970). The aortas isolated without the endothelium are prepared according to the technique described by R. Furchgott et al. (J. Cardiol. Pharmacol., 1984, 6, p. 336-p. 343).
1) Effect on the contraction of the aorta maintained with 10^−6 M noradrenalin.
Calcium dobesilate relaxes the contraction of noradrenalin in a way dependent on the concentration (between 10^−4M and 10^−11M). The maximum relaxation was 70%.

[2] = tested on: aortas isolated from male rabbits; assay: Effect on the basal tension in aorta arteries with and without endothelium (basal tension 2 grams); assay type: cell-based, rabbit; settings: concentrations between 10^−8M and 10^−4
Protocol: as §1
2) Effect on the basal tension in the aorta arteries with and without endothelium (basal tension=2 grams).
Calcium dobesilate at concentrations between 10^−8M and 10^−4 relaxes, in a dose-dependent way, the aortas subjected to a basal tension of 2 grams. The maximum relaxation was 44% for the arteries with endothelium and 48% for the arteries without endothelium.

[3] = tested on: aortas originating from the treated rabbits; assay: Protective effect on the endothelium: relaxation of noradrenalin-contracted aortas from rabbits with vitamin D2 overdose; assay type: in vivo, rabbit; settings: 10^−6M noradrenalin, calcium dobesilate between 10^−11M and 10^−5M on the artery
Protocol: The protective effect on the endothelium with calcium dobesilate was studied in the rabbit.
To do this, the arterial endothelium in rabbits is damaged by a daily treatment with an overdose of vitamin D2 and three groups of animals are used in the study:
II—Hypervitaminosis D2+50 mg/kg/day calcium dobesilate.
The studies are carried out with arteries originating from the treated rabbits by measuring the effect on the contraction of the aorta maintained with 10^−6M noradrenalin.
Calcium dobesilate (between 10^−11M and 10^−5M) relaxes in a dose-dependent way the contraction due to noradrenalin. The least relaxation corresponds to the hypervitaminosis D2 group (group I), whereas the maximum relaxation is obtained with the aortas of the group treated with calcium dobesilate (group II).
The maximum relaxation obtained for each group was as follows: […]

[4] = tested on: aortas isolated from male rabbits; assay: Effect on the noradrenalin concentration/effect curve in aorta with and without endothelium; assay type: cell-based, rabbit; settings: concentration of 10^−6M
Protocol: as §1
3) Effect on the noradrenalin concentration/effect curve.
In arteries with the intact endothelium, calcium dobesilate at a concentration of 10^−6M inhibits a 44% the contraction obtained with 10 ^−4M noradrenalin.

Molecule | effects on the endothelium (endothelium) | maximum relaxation of the contraction of noradrenalin [1] | maximum relaxation of basal tension ([2]; arteries with endothelium) | maximum relaxation of basal tension ([2]; arteries without endothelium) | maximum relaxation of the contraction due to noradrenalin ([3]; aortas of Group I (hypervitaminosis D2)) | maximum relaxation of the contraction due to noradrenalin ([3]; aortas of Group II (hypervitaminosis D2 + 50 mg/kg/day calcium dobesilate)) | maximum relaxation of the contraction due to noradrenalin ([3]; aortas of Group O (control rabbits)) | inhibition of the contraction obtained with 10^−4M noradrenalin ([4]; arteries with the intact endothelium) | effect on the noradrenalin concentration/effect curve ([4]; arteries without endothelium)
CCNCC.O=S(=O)(O)c1cc(O)ccc1O [ethamsylate, Diethylamine 2,5-dihydroxybenzenesulfonate] | facilitating endothelium-dependent vascular relaxation |  |  |  |  |  |  |  | 
CCNCC.CCNCC.O=S(=O)(O)c1cc(O)c(S(=O)(=O)O)cc1O [persilate, Bis(diethylamine) 2,5-dihydroxybenzene-1,4-disulfonate] | facilitating endothelium-dependent vascular relaxation |  |  |  |  |  |  |  | 
Calcium 2,5-dihydroxybenzenesulfonate [calcium dobesilate] | facilitating endothelium-dependent vascular relaxation | 70% | 44% | 48% | 52% | 100% | 69% | 44% | no modification of the curve
